Measured values taken from PubChem BioAssay AID1845205 (Molecular Pharmacology Branch, DTP, NCI, 2023).

Tested on: MPNST multicellular tumor spheroids, viability % test/control
Assay: Anticancer human tumor MPNST cell line growth inhibition;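 also: spheroids exposed to agents for seven days after three days of growth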;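 as to viability, T/C: luminescence signal used as surrogate for viable cell amount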
Conditions: for IC50: curve of first compound; for viability, T/C: stronger effect = lower value
In short: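 Complex tumor spheroids combined malignant cells with endothelial cells and mesenchymal stem cells. DNA-damaging drugs and DNA repair inhibitors were tested alone and in combination, at half-log dilutions down from clinical Cmax (top 10 microM if Cmax unknown), 0.25% DMSO final.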

Question: What does the source list for `Cn1ncnc1[C@H]1c2n[nH]c(=O)c3cc(F)cc(c23)N[C@@H]1c1ccc(F)cc1` + Cn1nnc2c(C(N)=O)ncn2c1=O?
Answer: IC50 (second compound 1 µM): 2760 nM; IC50 (second compound 3.16 µM): > 3000 nM; IC50 (second compound 10 µM): > 3000 nM; IC50 (second compound 31.6 µM): 505 nM; IC50 (second compound 100 µM): 27 nM; viability, T/C (second compound 1 µM, first compound 0.00949 µM): 93.1%; viability, T/C (second compound 1 µM, first compound 0.03 µM): 77.1%; viability, T/C (second compound 1 µM, first compound 0.0949 µM): 70.3%; viability, T/C (second compound 1 µM, first compound 0.3 µM): 58.9%; viability, T/C (second compound 1 µM, first compound 0.949 µM): 52%; viability, T/C (second compound 1 µM, first compound 3 µM): 50.8%; viability, T/C (second compound 3.16 µM, first compound 0.00949 µM): 77.7%; viability, T/C (second compound 3.16 µM, first compound 0.03 µM): 74%; viability, T/C (second compound 3.16 µM, first compound 0.0949 µM): 74.2%; viability, T/C (second compound 3.16 µM, first compound 0.3 µM): 55.2%; viability, T/C (second compound 3.16 µM, first compound 0.949 µM): 53.7%; viability, T/C (second compound 3.16 µM, first compound 3 µM): 52.7%; viability, T/C (second compound 10 µM, first compound 0.00949 µM): 79%; viability, T/C (second compound 10 µM, first compound 0.03 µM): 71.6%; viability, T/C (second compound 10 µM, first compound 0.0949 µM): 63.9%; viability, T/C (second compound 10 µM, first compound 0.3 µM): 55.8%; viability, T/C (second compound 10 µM, first compound 0.949 µM): 51.7%; viability, T/C (second compound 10 µM, first compound 3 µM): 51.7%; viability, T/C (second compound 31.6 µM, first compound 0.00949 µM): 61.7%; viability, T/C (second compound 31.6 µM, first compound 0.03 µM): 56%; viability, T/C (second compound 31.6 µM, first compound 0.0949 µM): 58.1%; viability, T/C (second compound 31.6 µM, first compound 0.3 µM): 48.9%; viability, T/C (second compound 31.6 µM, first compound 0.949 µM): 48.2%; viability, T/C (second compound 31.6 µM, first compound 3 µM): 46.5%; viability, T/C (second compound 100 µM, first compound 0.00949 µM): 52.5%; viability, T/C (second compound 100 µM, first compound 0.03 µM): 50%; viability, T/C (second compound 100 µM, first compound 0.0949 µM): 49%; viability, T/C (second compound 100 µM, first compound 0.3 µM): 46.2%; viability, T/C (second compound 100 µM, first compound 0.949 µM): 47.5%; viability, T/C (second compound 100 µM, first compound 3 µM): 48.3%
